Here are results for three molecules from US6433174B1, “Process for producing novel naphthyridine derivatives” (Nippon Kayaku Kabushiki Kaisha, priority 1998, dated 2002).

Data set [1] has as its target T1, NK-2 receptor (Cavia porcellus, UniProt Q64077).
T1 construct: Specimens were prepared by joining 5 slices from said trachea; from tissue; host or cells: isolated guinea pig trachea (A2); anesthetized guinea pig airway in vivo (A5)
T1 sequence (Q64077 1-402): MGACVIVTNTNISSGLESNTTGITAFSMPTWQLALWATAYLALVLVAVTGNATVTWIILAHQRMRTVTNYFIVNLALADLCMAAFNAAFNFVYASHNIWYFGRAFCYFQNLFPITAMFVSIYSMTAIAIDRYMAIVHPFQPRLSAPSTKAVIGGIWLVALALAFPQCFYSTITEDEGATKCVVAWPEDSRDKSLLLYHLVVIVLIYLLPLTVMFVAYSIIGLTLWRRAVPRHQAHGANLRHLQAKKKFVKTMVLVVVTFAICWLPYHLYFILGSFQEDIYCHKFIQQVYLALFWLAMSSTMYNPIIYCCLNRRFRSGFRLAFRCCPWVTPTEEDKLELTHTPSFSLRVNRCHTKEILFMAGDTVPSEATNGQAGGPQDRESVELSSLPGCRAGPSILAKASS
Put plainly: Inhibitory action against stricture of airway caused by NK-2 receptor stimulation and antigen inhalation. The format is in vivo. The following applies: guinea pig. The procedure:
Inhibitory Action Against Stricture of Airway
The non-treated Hartley strain male guinea pigs and the Hartley strain male guinea pigs which had been actively sensitized by subcutaneous administration of 300 mg/kg of ovalbumin 14 to 21 days ago were used. A tube was inserted into the trachea of each guinea pig anesthetized with pentobarbital, and positive pressure breathing was conducted at a rate of 60 times of breathing per minute (10 ml/kg) by an artificial breathing system. Lateral pressure of the tube in the trachea was measured as an index of stricture of airway. Spontaneous respiration was inhibited by the administration of succinylcholine. To the non-treated guinea pigs, 2 μmol of Nle10 neurokinin A (4-10)—a specific stimulant to NK-2 receptor—was intravenously injected repeatedly at intervals of 10 minutes. After the induced airway restriction reaction was stabilized, the drug was administered intravenously or perorally. 3 minutes after intravenous administration or 50 minutes after peroral or intraduodenal administration, Nle10 neurokinin A (4-10) was again intravenously injected. The inhibition rate by the drug was determined with the degree of airway restriction before drug administration as control.
15 minutes after intravenous administration of 4.6 μmol/kg of phosphoramidon to each actively sensitized guinea pig, it was forced to inhale, for 2 minutes, an aerosol of an antigen ovalbumin solution (2 mg/ml) generated by a supersonic nebulizer to induce stricture of the airway. The drug or its solvent was administered perorally 50 minutes before the antigen inhalation. 8 minutes after antigen inhalation of the solvent-administered group, the inhibition rate of the drug-administered group was determined with the degree of airway stricture of the solvent-administered group as control.

A further data set addresses T2, NK-3 receptor (Cavia porcellus, UniProt P30098).
T2 construct: its ileum was extracted; An approximately 3 cm long specimen was prepared therefrom; from tissue; host or cells: isolated guinea pig ileum
T2 sequence (P30098 1-440): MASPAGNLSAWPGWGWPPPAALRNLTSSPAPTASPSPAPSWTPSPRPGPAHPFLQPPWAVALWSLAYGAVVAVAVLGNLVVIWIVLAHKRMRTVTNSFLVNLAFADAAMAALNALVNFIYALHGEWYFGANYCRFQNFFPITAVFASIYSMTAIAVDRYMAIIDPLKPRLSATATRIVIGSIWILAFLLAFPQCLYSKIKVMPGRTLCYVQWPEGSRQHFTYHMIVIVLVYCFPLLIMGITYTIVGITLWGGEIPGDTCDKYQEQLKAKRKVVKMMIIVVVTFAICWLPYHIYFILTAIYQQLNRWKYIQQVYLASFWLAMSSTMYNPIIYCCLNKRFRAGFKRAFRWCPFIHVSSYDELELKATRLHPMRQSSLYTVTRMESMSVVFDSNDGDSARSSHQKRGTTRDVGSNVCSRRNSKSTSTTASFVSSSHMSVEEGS
Put plainly: Antagonistic action against NK-3 receptor: senktide-induced contraction of isolated guinea pig ileum. The format is cell-based. The following applies: senktide 1×10^−9 M, 35-minute incubation, read-out: IC50 of the drug against contraction by senktide. The protocol: Antagonistic Action Against NK-3 Receptor
A Hartley-strain male guinea pig was caused to die by head contusion and blood depletion, and its ileum was extracted. An approximately 3 cm long specimen was prepared therefrom, and it was suspended with a tension of 0.5 gram-weight in a 15 ml Magunus tank containing a 37° C. Kregs-Henseleit liquid through which a mixed gas of 95% O2 and 5% CO2 had been passed. A Krebs-Henseleit liquid containing atropin (1×10^−6 M) and indomethacin (5×10^−6 M) was used to obviate the participation of endogenous acetylcholine and prostaglandin. Senktide (1×10^−9 M), which is a specific stimulant of NK-3 receptor, was acted repeatedly at intervals of 50 minutes. After contraction by senktide was stabilized, the drug was added in various concentrations and, after 35-minute incubation, senktide was again acted. The contraction inhibition rate by the drug was determined with the amount of contraction just before the addition of the drug as control, and the 50% inhibition concentration (IC50) of the drug was determined from the linear regression.

The next data set concerns Mouse. The data set is described as follows: Toxic action in mouse, intravenous administration. The data set is classed as in vivo. From the text: Toxicity of the novel naphthyridine derivatives of the present invention was examined.
Data set [2] deals with T1, NK-2 receptor. Put plainly: Antagonistic action against NK-2 receptor: neurokinin A-induced contraction of isolated guinea pig trachea. The format is cell-based. The following applies: drug concentration 5 × 10^−9 M, neurokinin A 1×10^−9 M, 110-minute incubation, read-out: Inhibition rate of neurokinin A-induced contraction. The protocol: Antagonistic Action Against NK-2 Receptor
A Hartley-strain male guinea pig was caused to die by head contusion and blood depletion, and its trachea was extracted. Specimens were prepared by joining 5 slices from said trachea, and they were suspended with a tension of 0.5 gram-weight in a 15-ml Magunus tank containing a 37° C. Krebs-Henseleit liquid through which a mixed gas of 95% O2 and 5% CO2 had been passed. A Krebs-Henseleit liquid containing indomethacin (5×10^−6 M) was used to obviate the participation of endogenous prostaglandin. After confirming the maximum contraction of each specimen by methacholine, a drug or its solvent was added and, after 110-minute incubation, neurokinin A (1×10^−9 M) was acted thereto. Phosphoramidon (1×10^−5 M) was added for inhibiting decomposition of neurokinin A 30 minutes before the addition of neurokinin A and (±) CP-96345 (3×10^−7 M) was added for eliminating the participation of NK-1 receptor 20 minutes before the addition of neurokinin A. The contraction by neurokinin A was first determined as a ratio to the maximum contraction of each specimen, and then the inhibition rate by the drug was determined with the amount of contraction of the solvent-added specimen as control.

The target of data set [3] is T3, NK-2 receptor (Rattus norvegicus, UniProt P16610).
T3 construct: from tissue; host or cells: rat duodenum membrane preparation
T3 sequence (P16610 1-390): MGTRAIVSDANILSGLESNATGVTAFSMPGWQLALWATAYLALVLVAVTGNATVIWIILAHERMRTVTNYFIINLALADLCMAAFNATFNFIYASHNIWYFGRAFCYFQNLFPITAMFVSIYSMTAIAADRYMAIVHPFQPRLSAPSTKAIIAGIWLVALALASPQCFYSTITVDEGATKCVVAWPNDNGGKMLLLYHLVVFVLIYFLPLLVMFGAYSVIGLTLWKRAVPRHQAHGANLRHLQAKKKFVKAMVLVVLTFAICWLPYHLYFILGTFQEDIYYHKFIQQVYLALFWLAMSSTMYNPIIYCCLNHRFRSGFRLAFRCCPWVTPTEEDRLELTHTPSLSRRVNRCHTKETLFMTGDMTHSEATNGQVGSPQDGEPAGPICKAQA
The data set is described as follows: NK-2 receptor binding test (125I-neurokinin A, rat duodenum membrane preparation). Particulars: rat duodenum membranes, 125I-neurokinin A 1×10^−9 M, room temperature, 90 minutes; read-out: IC50 of the drug against radioactive neurokinin A binding. The procedure:
NK-2 Receptor Binding Test
The duodenum taken out from a Fischer-strain male rat was homogenized in a 50 mM tris-hydrochloride buffer solution containing ethylenediaminetetracetic acid (1 mM), and 48,000 g of the obtained homogenate was subjected to centrifugal sedimentation at 4° C. for 20 minutes. The produced pellets were washed thrice with 10 times as much volume of a 50 mM trishydrochloride butter solution containing KCl (300 mM) and ethylenediaminetetracetic acid (10 mM), and the obtained membrane preparation was suspended in 10 times as much volume of a 50 mM tris-hydrochloride buffer solution (pH 7.4) and kept at −80° C. till it was offered to use. The above membrane preparation (20 mg/ml) was incubated with a radioactive legand 125 I-neurokinin A (1×10^−9 M) in a 50 mM tris-hydrochloride buffer solution (pH 7.4) containing bovine serum albumin (10 mg/ml), bacitracin (40 μg/ml), leupepsin (4 μg/ml), chymostatin (50 μg/ml), antipain (1×10^−4 M) and MnCl2 (1 mM) in the presence of a drug or its solvent at room temperature for 90 minutes. The reaction solution was suction-filtered by a GE/B filter pretreated with polyethylene-imine (0.1%), and was washed with 3 ml of a 50 mM tris-hydrochloride buffer solution (pH 7.4) containing MnCl2 (1 mM), and the radioactivity in the filter was measured by a gamma counter. With the radioactivity in the presence of Nle10 eurokinin A (4-10) (3×10^−6 M) being taken as non-specific binding, the specific binding inhibition rate by the drug was given as control in the case of a solvent, and the 50% inhibition concentration (IC50) of the drug was determined from the linear regression.

The target in a further data set is T4, NK-1 receptor (Cavia porcellus, UniProt P30547).
T4 construct: its ileum was extracted; An approximately 3 cm long specimen was prepared therefrom; from tissue; host or cells: isolated guinea pig ileum
T4 sequence (P30547 whole entry): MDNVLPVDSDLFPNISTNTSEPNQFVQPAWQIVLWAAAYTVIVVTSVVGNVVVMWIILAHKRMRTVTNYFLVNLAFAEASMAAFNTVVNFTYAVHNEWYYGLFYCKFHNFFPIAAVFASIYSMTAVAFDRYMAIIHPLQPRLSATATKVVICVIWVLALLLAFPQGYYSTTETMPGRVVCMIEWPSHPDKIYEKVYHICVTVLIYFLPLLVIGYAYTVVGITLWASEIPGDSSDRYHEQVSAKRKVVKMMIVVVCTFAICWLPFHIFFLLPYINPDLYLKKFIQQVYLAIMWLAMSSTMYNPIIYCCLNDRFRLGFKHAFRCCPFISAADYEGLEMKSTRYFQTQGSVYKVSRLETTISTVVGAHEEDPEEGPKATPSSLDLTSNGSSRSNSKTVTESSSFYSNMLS
Put plainly: Antagonistic action against NK-1 receptor: Methyl Substance P-induced contraction of isolated guinea pig ileum. Particulars: Methyl Substance P 1×10^−9 M, 35-minute incubation, read-out: IC50 of the drug against contraction by Methyl Substance P. The data set is classed as cell-based. The protocol:
Antagonistic Action Against NK-1 Receptor
A Hartley strain male guinea pig was caused to die by head contusion and blood depletion, and its ileum was extracted. An approximately 3 cm long specimen was prepared therefrom, and it was suspended with a tension of 0.5 gram-weight in a 15 ml Mogunus tank containing a 37° C. Krebs-Henseleit liquid through which a mixed gas of 95% O2 and 5% CO2 had been passed. A Krebs-Henseleit liquid containing atropin (1×10^−6 M) and indomethacin (5×10^−6 M) was used to get rid of the participation of endogenous acetylcholine and prostaglandin. Methyl Substance P (1×10^−9 M), which is a specific stimulant of NK-1 receptor, was acted repeatedly at intervals of 40 minutes. After contraction by Methyl Substance P was stabilized, the drug was added in various concentrations and, after 35-minute incubation, Methyl Substance P was again acted. The contraction inhibition rate by the drug was determined with the contraction just before the addition of the drug as control, and the 50% inhibition concentration (IC50) of the drug was calculated from the linear regression.

Turning to `CN(CC(CCN1CCc2nc3c(cc2C1)CCCC3)c1ccc(Cl)c(Cl)c1)C(=O)c1ccccc1` (stereo not drawn) [(2)-b], the “Inhibition rate (%) NK-2 receptor stimulation and antigen inhalation” value on NK-2 receptor [1] (1 μmol/kg, Intravenous) is 94.2%; at NK-2 receptor [1] (8 μmol/kg, Peroral), 67.2%; on NK-2 receptor [1] (10 μmol/kg, Peroral), 54.1%. The IC50 on NK-3 receptor worked out at 180 nM; on NK-2 receptor [3], 56 nM; on NK-1 receptor it was 470 nM. The “Toxicity by intravenous administration of the drug” value in the data set on Mouse (22 μmol/kg intravenous) and in the data set on Mouse (65 μmol/kg intravenous) was “None” in each case. Besides, the inhibition at 0.005 µM at NK-2 receptor [2] stood at 89.1%.

As to `CN(CC(CCN1CCc2nc3ccccc3c(-c3ccccc3)c2C1)c1ccc(Cl)c(Cl)c1)C(=O)c1ccccc1` (stereo not drawn) [(3)-b], the “Inhibition rate (%) NK-2 receptor stimulation and antigen inhalation” value at NK-2 receptor [1] (0.5 μmol/kg, Intravenous) was determined as 70.0%. For the same molecule, the IC50 on NK-2 receptor [3] is 70 nM.

On to `CC(=O)Nc1c2c(nc3ccccc13)CCN(CCC(CN(C)C(=O)c1ccccc1)c1ccc(Cl)c(Cl)c1)C2` (stereo not drawn) [(6)-b], for which the “Inhibition rate (%) NK-2 receptor stimulation and antigen inhalation” value at NK-2 receptor [1] (0.5 μmol/kg, Intravenous) is given as 100.0%; at NK-2 receptor [1] (8 μmol/kg, Peroral) it was 81.5%. Further, in the data set with Mouse (65 μmol/kg intravenous), the “Toxicity by intravenous administration of the drug” value was “None”. In addition, the 50% inhibitory concentration (IC50) at NK-2 receptor [3] was determined as 18 nM.
